{
  "source": "paper PMC12523843",
  "about": "“Kuwanon A Targeted YWHAB in Hepatocellular Carcinoma Cells to Inhibit the Raf/MEK/ERK Signaling Pathway” (Cells, 2025)",
  "key": {"SMMC 7721 cells": {"tested_on": "SMMC 7721 cells", "test": "MTT IC50 determination in SMMC 7721", "assay_type": "cell-based", "settings": "Homo sapiens, gradient concentrations, 48 h", "procedure": "(§1) Cell viability was assessed using MTT experiments. Cells, together with KA, were seeded into 96-well plates at a density of 2000 cells per well with three replicates per condition. DMSO was used as a control. At designated time points, 20 μL of MTT (Sigma, St. Louis, MO, USA) solution was added to each well and incubated for 3 h. After removing the culture medium, 200 μL of DMSO was added to dissolve the formazan crystals. The absorbance was then measured using a microplate reader at a wavelength of 560 nm."}, "[1]": {"tested_on": "HCC cells (MHCC97 H and SMMC 7721)", "test": "MTT cell proliferation assay", "assay_type": "cell-based, human", "settings": "1–7 days", "procedure": "as §1"}, "[2]": {"tested_on": "HCC cells (MHCC97 H and SMMC 7721)", "test": "EdU staining proliferation assay", "assay_type": "cell-based, human", "procedure": "EdU staining was employed to assess cell proliferation following the manufacturer’s guidelines (Beyotime, Shanghai, China). A total of 2 × 10^4 cells, together with KA or DMSO, were seeded into 24-well plates and cultured for 48 h. Subsequently, the cells were incubated with […] EDU for 2 h, followed by fixation with 4% PFA for 15 min, permeabilization with 0.3% Triton X-100 for 10 min, and reaction with Click reaction cocktails for 30 min. Finally, the nuclei were stained with DAPI for 30 min at room temperature before microscopic examination."}, "[3]": {"tested_on": "HCC cells (MHCC97 H and SMMC 7721)", "test": "Flow cytometry cell cycle analysis, result stated for HCC cells", "assay_type": "cell-based, human", "settings": "48 h", "procedure": "Cells were digested, centrifuged, and resuspended in PBS buffer following 48 h of treatment with either KA or DMSO. Prior to cell cycle analysis, the cells were fixed in 75% ethanol for a minimum of 24 h, followed by labeling with PI and RNase (Beyotime, Shanghai, China). Subsequently, the cells were analyzed using flow cytometry. Each group consisted of three replicates."}, "[4]": {"tested_on": "YWHAB knockdown HCC cells", "test": "MTT IC50 in YWHAB knockdown HCC cells", "assay_type": "cell-based, human", "settings": "48 h, vs scramble", "procedure": "as §1\nShort hairpin (sh) RNA targeting YWHAB was cloned into the pLKO.1-puro plasmid, with the sequences listed in Supplementary Table S1. Flag-tagged YWHAB, MYC-tagged YWHAB, and Flag-tagged Raf1 plasmids were purchased from Miaoling (Wuhan, China). Transfection was performed by introducing the specified plasmids into HEK293FT cells using Lipofectamine 2000 (Thermo, New York, NY, USA), following the manufacturer’s instructions. Viral supernatant or cells were collected two days post-transfection. For infection, HCC cells were treated with viral supernatant and polybrene (Sigma, Virginia Beach, VA, USA). After two rounds of infection, the cells were stably selected by using puromycin (Sigma, Virginia Beach, VA, USA)."}, "YWHAB dimer [5]": {"target": "T1, YWHAB dimer (Homo sapiens, UniProt P31946)", "T1 sequence (P31946 1-246)": "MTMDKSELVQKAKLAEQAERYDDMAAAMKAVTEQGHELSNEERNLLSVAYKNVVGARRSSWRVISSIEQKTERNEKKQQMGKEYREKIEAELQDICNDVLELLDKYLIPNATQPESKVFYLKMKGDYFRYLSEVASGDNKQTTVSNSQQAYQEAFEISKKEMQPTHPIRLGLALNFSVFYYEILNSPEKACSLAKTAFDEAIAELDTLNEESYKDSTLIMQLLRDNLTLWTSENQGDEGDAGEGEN", "test": "Co-immunoprecipitation of MYC-YWHAB and FLAG-YWHAB in HEK 293T", "assay_type": "cell-based", "set-up": "host or cells: HEK 293T", "settings": "25 μM and 30 μM, HEK 293T overexpressing MYC-YWHAB and FLAG-YWHAB"}, "YWHAB dimer [6]": {"target": "T1, YWHAB dimer", "test": "Blue-Native PAGE of YWHAB dimer", "assay_type": "cell-based", "set-up": "endogenous in cells; host or cells: MHCC97 H and SMMC 7721", "settings": "HCC cell lines and FLAG-YWHAB overexpressed HEK 293T cells", "procedure": "Blue/Clear Native PAGE (Real Times, Beijing, China) is an electrophoretic technique used to separate protein complexes from biological samples. Instead of SDS, Coomassie Brilliant Blue G-250 binds to the protein, imparting a negative charge, allowing separation in the PAGE gel based on the molecular weight of the proteins. HCC cells treated with KA or DMSO for 48 h were collected using a cell scraper and lysed on ice in IP cell lysis buffer for one hour. A suitable amount of 4× BN/CN-PAGE protein loading buffer and 5% G-250 stain (for loading) was added to the supernatant of the protein sample, followed by BN-PAGE electrophoresis in the Native PAGE gel. After electrophoresis and membrane transfer, the PVDF membrane (Millipore, Darmstadt, Germany) was blocked with 5% BSA for two hours at room temperature. HPR-linked primary and secondary antibodies were incubated for detection, and protein bands were visualized using the ECL detection system (Clinx, Shanghai, China)"}},
  "data": [
    {"molecule": "CC(C)=CCc1c(-c2ccc(O)c3c2OC(C)(C)C=C3)oc2cc(O)cc(O)c2c1=O", "note": "[KA, Kuwanon A]", "values": [
      {"measurement": "IC50", "setting": "SMMC 7721 cells", "result": 9.85, "unit": "µM"},
      {"measurement": "HCC cell proliferation (continuous MTT)", "setting": "[1]; 10 μM and 15 μM, vs DMSO", "result": "significantly inhibited HCC cell proliferation in a dose-dependent manner"},
      {"measurement": "proliferation inhibition by KA under YWHAB overexpression (MTT)", "setting": "[1]; YWHAB-overexpressing HCC cells, KA 15 μM", "result": "partly reversed the proliferation inhibition"},
      {"measurement": "proportion of proliferating HCC cells (EdU)", "setting": "[2]; 48 h treatment", "result": "significant decrease in the proportion of proliferating HCC cells"},
      {"measurement": "proliferation inhibition by KA under YWHAB overexpression (EdU)", "setting": "[2]; YWHAB-overexpressing HCC cells, KA 15 μM, 48 h", "result": "partly reversed the proliferation inhibition"},
      {"measurement": "cell cycle arrest (flow cytometry)", "setting": "[3]; concentration-dependent", "result": "significant G0/G1 phase arrest"},
      {"measurement": "G0/G1 phase arrest under YWHAB overexpression", "setting": "[3]; YWHAB-overexpressing cells, KA 15 μM", "result": "less KA-induced G0/G1 phase arrest"},
      {"measurement": "IC50 of KA after knockdown of YWHAB", "setting": "[4]", "result": "significant increase in the IC50"},
      {"measurement": "dimerization levels of YWHAB (co-immunoprecipitation)", "setting": "YWHAB dimer [5]", "result": "reduced dimerization levels of YWHAB"},
      {"measurement": "proportion of YWHAB dimer (Native-PAGE)", "setting": "YWHAB dimer [6]", "result": "proportion of YWHAB dimer had decreased"}
    ]}
  ]
}
